Results taken from article PMC7589783, “Newly Synthesized Imino-Derivatives Analogues of Resveratrol Exert Inhibitory Effects in Breast Tumor Cells” (International Journal of Molecular Sciences, 2020).
Where “and” joins values, the source holds several entries; their conditions need not be identical. Equal entries are not always repeated. Entries after “also recorded” stand apart in the source; their conditions may differ. Where two headings read alike, the source gives them in different places.

Key:
[1] = system: human embryonic kidney 293 (HEK293) cells; test: MTT cell viability assay in HEK293 cells; format: cell-based; conditions: for IC50: Homo sapiens, HEK293, 48 h treatment, MTT assay, read-out: IC50 (µM) ± S.D. HEK293; for Anti-proliferative / inhibitory effects in non-tumoral HEK293 cells: result in words
Protocol: (§1) SkBr3 cells were maintained in RPMI-1640 (Life Technologies, Milan, Italy) without phenol red, supplemented with 5% fetal bovine serum (FBS) and 100 μg/mL penicillin/streptomycin (Life Technologies, Milan, Italy). MCF-7 and HEK-293 cells were maintained in DMEM (Dulbecco’s modified Eagle’s medium) (Life Technologies, Milan, Italy) with phenol red, with a supplement of 5% FBS and 100 μg/mL of penicillin/streptomycin.
(§2) The effects of each compound on cell viability were determined by the MTT [3-(4,5-dimethylthiazol-2-yl)-2,5-diphenyltetrazolium bromide] assay, as previously reported. Cells were seeded in quadruplicate in 96-well plates in regular growth medium and grown until 70–80% confluence. […] Relative cell viability was determined by MTT assay according to the manufacturer’s protocol (Sigma-Aldrich, Milan, Italy). Mean absorbance for each drug dose was expressed as a percentage of the control untreated well absorbance and plotted versus drug concentration. IC50 values represent the drugs concentration able to reduce the cells viability of 50% respect to the untreated control cells (vehicle).

[2] = biological target: T1, recombinant human topo I (Homo sapiens, UniProt P11387); test: Human topoisomerase I (hTopoI) relaxation assay; format: biochemical; conditions: 50 μM
T1 construct: purchased TopoGEN, Port Orange, FL, USA
T1 sequence (P11387 1-765): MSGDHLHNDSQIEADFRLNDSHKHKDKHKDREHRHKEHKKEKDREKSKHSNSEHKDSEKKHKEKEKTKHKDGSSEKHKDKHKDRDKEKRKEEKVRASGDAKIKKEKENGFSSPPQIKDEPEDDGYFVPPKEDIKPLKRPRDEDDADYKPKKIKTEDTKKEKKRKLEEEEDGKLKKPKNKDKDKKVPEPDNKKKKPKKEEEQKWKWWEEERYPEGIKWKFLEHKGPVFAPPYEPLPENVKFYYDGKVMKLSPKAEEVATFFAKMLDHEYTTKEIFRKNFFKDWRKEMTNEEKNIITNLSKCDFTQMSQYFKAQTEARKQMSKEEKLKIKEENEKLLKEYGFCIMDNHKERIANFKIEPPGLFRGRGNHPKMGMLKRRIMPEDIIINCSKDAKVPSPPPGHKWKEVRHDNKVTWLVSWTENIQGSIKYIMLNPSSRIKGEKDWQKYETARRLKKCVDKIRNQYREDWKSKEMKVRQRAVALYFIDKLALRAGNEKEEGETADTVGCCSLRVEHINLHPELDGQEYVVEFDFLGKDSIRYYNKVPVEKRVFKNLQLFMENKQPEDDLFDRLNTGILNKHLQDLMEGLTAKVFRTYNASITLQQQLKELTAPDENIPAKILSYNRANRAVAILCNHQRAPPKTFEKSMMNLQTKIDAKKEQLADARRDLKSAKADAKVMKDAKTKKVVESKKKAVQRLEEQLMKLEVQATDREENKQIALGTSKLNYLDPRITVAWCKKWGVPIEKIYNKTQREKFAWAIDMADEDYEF
Protocol: Human topoisomerase I relaxation assays were performed incubating the supercoiled pHOT1 (used as substrate) with the recombinant human topo I (TopoGEN, Port Orange, FL, USA) and all the tested compounds, according to the guidelines of the manufacturer (TopoGEN, Port Orange, FL, USA), with some modifications.

[3] = system: SkBr3 breast cancer cells; test: MTT cell viability assay in SkBr3 cells; format: cell-based; conditions: Homo sapiens
Protocol: as §1, §2

[4] = system: MCF-7 cells; test: TUNEL assay in MCF-7 cells; format: cell-based, human
Protocol: (§3) Cell apoptosis was determined by TdT-mediated dUTP Nick-End Labeling (TUNEL) assay, conducted using DeadEnd Fluorometric TUNEL System (Promega, Milan, Italy) and performed according to the manufacturer’s instructions. […] After fixation, cells were permeabilized in 0.2% Triton X-100 solution in PBS for 5 min. After washing twice with washing buffer for 5 min, the cells were covered with equilibration buffer at room temperature for 5–10 min. The labeling reaction was performed using terminal deoxynucleotidyl transferase end-labeling TdT and fluorescein-dUTP cocktail for each sample and incubated for 1 h at 37 ◦C where TdT catalyzes the binding of fluorescein-dUTP to free 3′OH ends in the nicked DNA. After rinsing, cells were washed with 2 × SSC solution buffer and subsequently incubated with 4′,6-Diamidino-2-Phenylindole (DAPI, Sigma-Aldrich, Milan, Italy) to stain nuclei and analyzed using the Cytation 3 Cell Imaging Multimode Reader (BioTek, Winooski, VT, USA). Statistical analysis was done using ANOVA followed by Newman–Keuls’ testing to determine differences in means. p < 0.05 was considered as statistically significant.

[5] = biological target: T2, human topoisomerase II (Homo sapiens, UniProt P11388); test: Human topoisomerase II (hTopoII) decatenation assay; format: biochemical; conditions: 50 μM
T2 construct: purchased TopoGEN, Port Orange, FL, USA
Protocol: Human topoisomerase II decatenation assays were carried out incubating the human topoisomerase II (TopoGEN, Port Orange, FL, USA) with kinetoplast DNA (used as substrate) and all the tested compounds, according to the guidelines of the manufacturer (TopoGEN, Port Orange, FL, USA), with some modifications.

[6] = system: SkBr3 cells; test: TUNEL assay in SkBr3 cells; format: cell-based, human
Protocol: as §3

[7] = In vitro bioavailability, dialysis tubing procedure with pepsin and pancreatin digestion; format: in vitro ADME; conditions: for In vitro bioavailability (%) 4 h pH 7.0: after pancreatin digestion (4 h); for In vitro bioavailability (%) 2 h pH 1.0: after pepsin digestion (2 h); for In vitro bioavailability (%) Total 6 h: total after pepsin (2 h) and pancreatin (4 h) digestions
Protocol: In vitro bioavailability studies of compounds 3, 4 (the salt of compound 3) and resveratrol were performed in solutions simulating gastric and intestinal environment through a modified version of the traditional technique of dialysis membranes. The method of the dialysis membrane is divided in two enzymatic digestion phases: A first phase in which the action of pepsin occurs and a second phase in which participates the pancreatin (see experimental section). Bioavailability is defined as the percentage of analyte recovered in the bio-accessible fraction after in vitro digestion, in relation to the original undigested sample, as calculated according to the following equation [32]:Bioavailability (%) = (Bioaccessible content/Total content) × 100
In vitro bioavailability studies were performed according to the dialysis tubing procedure as previously reported in literature.
For this purpose, 100 µL of each tested compound (10 mM in DMSO) were employed and the concentration of each sample was determined using a UV/VIS spectrometer V-530 (Jasco, Cremella (LC), Italy).
The percentages were calculated according to the equations obtained from the prepared calibration curves at pH 1.0 and 7.0, respectively, for the two tested molecules.
The experiments were carried out in triplicate.

[8] = system: MCF-7 breast cancer cells; test: MTT cell viability assay in MCF-7 cells; format: cell-based; conditions: Homo sapiens
Protocol: as §1, §2

[9] = SK-BR-3, 48 h treatment, read-out: IC50 (µM) ± S.D. SkBr3
[10] = MCF7, 48 h treatment, read-out: IC50 (µM) ± S.D. MCF-7
[11] = 50 µM for 48 h (data not shown)

T2 sequence (P11388 whole entry): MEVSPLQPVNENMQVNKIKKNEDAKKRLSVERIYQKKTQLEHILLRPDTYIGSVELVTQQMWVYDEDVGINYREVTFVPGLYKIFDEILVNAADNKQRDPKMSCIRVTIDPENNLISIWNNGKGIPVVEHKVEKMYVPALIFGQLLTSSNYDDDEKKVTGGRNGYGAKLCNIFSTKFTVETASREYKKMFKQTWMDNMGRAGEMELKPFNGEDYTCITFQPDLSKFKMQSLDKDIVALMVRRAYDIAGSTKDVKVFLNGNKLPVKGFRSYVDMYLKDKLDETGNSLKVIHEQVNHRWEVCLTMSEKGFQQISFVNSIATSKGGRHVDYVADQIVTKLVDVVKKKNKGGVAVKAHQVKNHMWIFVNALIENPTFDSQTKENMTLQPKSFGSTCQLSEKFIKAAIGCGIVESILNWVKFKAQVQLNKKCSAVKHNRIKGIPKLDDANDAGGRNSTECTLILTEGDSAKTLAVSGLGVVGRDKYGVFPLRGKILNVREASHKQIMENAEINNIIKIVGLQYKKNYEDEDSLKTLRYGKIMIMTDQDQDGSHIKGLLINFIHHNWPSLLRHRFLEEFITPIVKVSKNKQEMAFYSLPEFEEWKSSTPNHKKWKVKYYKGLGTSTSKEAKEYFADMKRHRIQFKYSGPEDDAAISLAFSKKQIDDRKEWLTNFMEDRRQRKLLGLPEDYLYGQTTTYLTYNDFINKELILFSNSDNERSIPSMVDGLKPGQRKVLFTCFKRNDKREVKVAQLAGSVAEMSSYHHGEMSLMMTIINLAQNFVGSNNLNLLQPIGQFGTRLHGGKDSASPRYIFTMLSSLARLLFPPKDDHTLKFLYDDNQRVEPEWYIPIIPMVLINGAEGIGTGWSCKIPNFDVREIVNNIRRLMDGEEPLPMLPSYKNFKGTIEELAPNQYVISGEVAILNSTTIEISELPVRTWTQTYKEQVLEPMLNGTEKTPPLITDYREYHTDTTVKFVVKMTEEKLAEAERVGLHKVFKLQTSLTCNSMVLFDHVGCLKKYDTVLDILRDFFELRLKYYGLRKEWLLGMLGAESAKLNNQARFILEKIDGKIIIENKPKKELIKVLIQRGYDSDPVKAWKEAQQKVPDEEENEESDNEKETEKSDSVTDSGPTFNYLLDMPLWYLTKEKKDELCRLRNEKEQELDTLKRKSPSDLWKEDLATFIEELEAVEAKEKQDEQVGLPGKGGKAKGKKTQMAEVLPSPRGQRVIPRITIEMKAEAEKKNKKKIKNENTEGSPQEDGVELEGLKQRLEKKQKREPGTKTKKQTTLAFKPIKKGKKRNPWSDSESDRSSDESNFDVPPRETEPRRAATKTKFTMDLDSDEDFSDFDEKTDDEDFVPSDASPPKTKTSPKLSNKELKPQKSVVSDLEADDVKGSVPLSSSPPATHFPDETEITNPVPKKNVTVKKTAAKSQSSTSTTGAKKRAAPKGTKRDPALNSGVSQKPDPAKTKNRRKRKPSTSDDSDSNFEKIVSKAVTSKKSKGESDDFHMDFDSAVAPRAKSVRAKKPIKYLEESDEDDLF

Row | Compound | IC50 [1] [µM] | Anti-proliferative / inhibitory effects in non-tumoral HEK293 cells [1] | Inhibition of hTopoI (relaxation of supercoiled DNA) [2] | IC50 [3, 9] [µM] | Percentage of TUNEL-positive cells, MCF-7 ([4]; 10 μM for 24 h, versus vehicle) | Inhibition of hTopoII activity (kDNA decatenation) [5] | Percentage of TUNEL-positive cells, SkBr3 ([6]; 10 μM for 24 h, versus vehicle) | In vitro bioavailability (%) 4 h pH 7.0 [7] | In vitro bioavailability (%) 2 h pH 1.0 [7] | In vitro bioavailability (%) Total 6 h [7] | IC50 [8, 10] [µM] | IC50 ([3]; SK-BR-3, treatment time not given, read-out: IC50, cytotoxic activity, SkBr3) [µM] | TUNEL staining, MCF-7 [4, 11] | TUNEL staining, SkBr3 [6, 11] | IC50 ([8]; MCF7, treatment time not given, read-out: IC50, cytotoxic activity, MCF-7) [µM]
1 | O=C(O)c1ccc(/N=C/c2cc(O)ccc2O)cc1 [Compound 3, (E)-4-(2,5-dihydroxybenzylidene)-imino-benzoic acid] | > 90 | did not elicit inhibitory effects; also recorded: did not induce inhibitory effects | no inhibition of hTopoI was observed | 15 | increased the percentage | able to inhibit | increased the percentage | 31% and 31 ± 1.1% | 16% and 16 ± 0.7% | 47% and 47 ± 1.6% | 12 |  |  |  | 
2 | O=C(O)c1ccc(/N=C/c2cc(O)ccc2O)cc1 [Compound 4, (E)-4-(2,5-dihydroxybenzylidene)-imino-sodium benzoate] |  | did not elicit anti-proliferative effects; also recorded: did not induce inhibitory effects | no inhibition of hTopoI was observed |  |  | able to inhibit |  | 28% and 28 ± 0.9% | 17% and 17 ± 0.8% | 45% and 45 ± 1.3% |  | 62 | positive for TUNEL staining | positive for TUNEL staining | 50
3 | O=C(O)c1ccc(/N=C/c2cc(O)cc(O)c2)cc1 [Compound 6, (E)-4-(3,5-dihydroxybenzylidene)-imino-benzoic acid] | > 90 |  |  | > 90 |  |  |  |  |  |  | > 90 |  |  |  | 
4 | Oc1ccc(C=Cc2cc(O)cc(O)c2)cc1 [resveratrol, 3, 4′,5-trihydroxy-stilbene] | > 90 |  | no inhibition of hTopoI was observed | > 90 |  | inhibited the hTopoII |  | 23 ± 0.8% | 12 ± 0.6% | 35% and 35 ± 1.1% | > 90 |  |  |  | 
